Values of other authors in patent publication US20240027453A1, “METHOD FOR DETECTION AND QUANTITATIVE MONITORING OF INFECTIONS WITH HERPESVIRUSES” (The Trustees of Princeton University, priority 2020, published 2024).

Legend:
HCMV [1] = details: in MRC5 cells; cited from earlier work
HCMV [2] = details: cited from earlier work

Structure (SMILES)	IC50 (HCMV [1])	decrease in HCMV titers (HCMV [2]; […] CAY10602, 50 μM trans-Resveratrol)	HCMV titers (HCMV [2])
Nc1ccn(C[C@@H](CO)OCP(=O)(O)O)c(=O)n1 [CDV, cidofovir]	~500 nM	–	–
Nc1c(S(=O)(=O)c2ccccc2)c2nc3ccccc3nc2n1-c1ccc(F)cc1 [CAY10602]	–	~50%	decreased
